# Measurements reported in publication PMC9519446, “Discovery of an Orally Active Benzoxaborole Prodrug Effective in the Treatment of Chagas Disease in Non-human Primates” (Nature microbiology, 2022).
# Several values for one entry are separate records, joined by “and”; a condition that tells them apart may be missing. Equal entries are not always repeated. Where two headings read alike, the source gives them in different places.
# Assays:
# [1] = tested on: CPSF3-OE T. cruzi intracellular amastigotes; assay: microbe, parasite or virus in culture; type: cell-based; conditions: Trypanosoma cruzi, read-out: CPSF3-OE IC50, intracellular amastigotes
# Description: (§1) The in vitro anti-T. cruzi amastiogote activity assay was performed and optimized based on the protocol described previously. The change in tdTomato fluorescence intensity was determined as a measurement of growth over 72 hours of culture. For assaying drug effects on extracellular amastigotes, trypomastigotes were collected from infected Vero cell cultures and converted in acidic media as previously described. Amastigotes (50,000/well) were incubated with 2-fold serial dilutions of compounds for 48 hours. The ATP production was used as an indication of growth in this case, and was measured by ATPlite Luminescence ATP Detection Assay System (PerkinElmer). Both fluorescence and luminescence were read using a BioTek Synergy Hybrid Multi-Mode reader equipped with the software Gene5 v 2.0 (BioTek). The dose-response curve was generated by […] analysis with GraphPad Prism v9.4.0 (GraphPad Software).
# The CPSF3 gene was amplified using primers ‘[…]’ and ‘[…]’, and integrated into the pTrex vector [47] by NEBuilder HiFi DNA assembly (New England Biolabs). The construct of pTrex-CPSF was then transfected into Brazil tdTomato epimastigotes and selected by 60ug/ml blasticidin.
# To confirm the CPSF overexpression in the selected transfectants, RNA was extracted as previously described and converted to cDNA using SuperScript Reverse Transcriptase (Invitrogen). Quantitative PCR reactions were performed in triplicate on the C1000 Touch Bio-Rad CFX96 real-time PCR detection system for CPSF using primer sets CPSF-1 (5'-[…]-3' and 5'-[…]-3') and CPSF-2 (5'-[…]-3' and 5'-[…]-3') in both control and CPSF over-expressing parasites, and the expression level was normalized to tubulin which was amplified using primers: ‘[…]’ and ‘[…]’.
# [2] = In vitro micronucleus study; type: cell-based
# [3] = tested on: broad array of mammalian enzymes, receptors and ion channels; assay: Preliminary safety pharmacology panel; type: binding
# T. cruzi Brazil strain = assay: Mouse cure assays (daily oral treatment, immunosuppression, qPCR of skeletal muscle, blood microscopy, hemoculture); type: in vivo, C57BL/6 mice; conditions: for Parasite equivalent/ 50 ng of DNA of skeletal muscle: individual mice; for Parasite Equivalents/50ng of DNA of skeletal muscle: individual animals
# Description: Male or female C57BL/6 mice were intraperitoneally infected with 10^4 trypomastigotes of the Brazil strain. Mouse infection was confirmed at 25-30 dpi by detection of CD8^+ T cells specific against the T. cruzi TSKb20 peptide in blood. Compounds resuspended in 1% carboxymethyl cellulose and 0.1% Tween 80, were administered daily by gavage at the specified concentrations. In order to optimally detect persistent infection, immune responses in the mice were suppressed by intraperitoneal injection of four doses of cyclophosphamide every 2-3 days (200 mg/kg/day), beginning one week after the end of therapeutic treatment. At the end of the immunosuppression regimen, peripheral blood was checked under light microscope for parasites and cultured in LDNT media. Mouse skeletal muscle samples were obtained at the end of the immunosuppression and processed for T. cruzi-DNA detection by qPCR as previously described.
# [4] = tested on: representative cytochrome P450 enzymes; assay: Cytochrome P450 inhibition; type: in vitro ADME; conditions: 10 uM
# [5] = tested on: T. cruzi intracellular amastigotes; assay: In vitro anti-T. cruzi intracellular amastigote growth inhibition assay (tdTomato fluorescence over 72 hours, Vero cells); type: cell-based, Trypanosoma cruzi
# Description: as §1
# [6] = tested on: T. cruzi (naturally acquired infection); assay: NHP treatment study: blood qPCR for T. cruzi DNA; type: in vivo, rhesus macaques (Macaca mulatta)
# Text: A total of 22 rhesus macaques that had been confirmed to be serologically- and PCR-positive for T. cruzi were utilized in these studies. Using 19 animals in the treatment group provided 85% power of detecting 100% efficacy. […] The remaining three animals on the study were maintained as untreated control animals and received food treats but were not dosed with AN15368.
# Blood samples from each macaque were collected at various time points and processed for quantification of T. cruzi DNA by real-time qPCR. Between 8-10ml of whole blood collected in EDTA anticoagulant tubes was subjected to DNA extraction using the Omega E.Z.N.A. Blood DNA Maxi Kit (Omega Bio-Tek), following the manufacturer’s instructions for up to 10 ml whole blood and using a total of 650 μl of elution buffer. Each round of extractions included a negative (no-template) control comprised of 10 ml PBS. The concentration of DNA in the eluted solution was quantified after each extraction using an Epoch microplate spectrophotometer (BioTek).
# DNA from each sample was then subjected to a series of two qPCR assays for detection of T. cruzi satellite DNA. The first qPCR used the cruzi 1, 2 primer set and cruzi 3 TaqMan probe as previously described, [54], using BioRad iTaq Universal Probes Supermix (Bio-Rad). […] We selected FAM and VIC channels for each read.
# [7] = Fig. 3b, mice treated for 40 days
# [8] = Fig. 3c, mice treated for 20 days
# [9] = Trypanosoma cruzi, Vero, read-out: WT IC50, WT intracellular amastigotes, control of CPSF3-OE comparison
# [10] = Trypanosoma cruzi, Vero, in vitro, Fig. 1a, Extended Data Fig. 1a, read-out: T. cruzi IC50
structure (smiles),measurement,setting,value
Cc1c(C(=O)NC(C(=O)OCc2ccc(F)c(F)c2)C(C)C)ccc2c1B(O)OC2 (centres unmarked) [AN14353],IC50,[1],1.9 nM
same,"genotoxicity, Ames",Ames study,non-genotoxic
same,"genotoxicity, in vitro micronucleus",[2],non-genotoxic
same,"affinity for mammalian enzymes, receptors and ion channels",[3],little to no affinity
same,outcome of cure assay,"T. cruzi Brazil strain; 25 mg/kg, 40 day treatment, wild-type mice and immunodeficient mice",could consistently resolve established T. cruzi infections
same,Parasite equivalent/ 50 ng of DNA of skeletal muscle,T. cruzi Brazil strain; [7],0.00339 Parasite equivalent/ 50 ng of DNA and 0.0112 Parasite equivalent/ 50 ng of DNA and 0.00674 Parasite equivalent/ 50 ng of DNA and 0.0326 Parasite equivalent/ 50 ng of DNA and 0.00218 Parasite equivalent/ 50 ng of DNA and 6.96e-5 Parasite equivalent/ 50 ng of DNA and 0.03 Parasite equivalent/ 50 ng of DNA
same,Parasite equivalent/ 50 ng of DNA of skeletal muscle,T. cruzi Brazil strain; [8],3.39 Parasite equivalent/ 50 ng of DNA and 0.89 Parasite equivalent/ 50 ng of DNA and 0.07 Parasite equivalent/ 50 ng of DNA and 1.14 Parasite equivalent/ 50 ng of DNA and 0.69 Parasite equivalent/ 50 ng of DNA and 1.27 Parasite equivalent/ 50 ng of DNA
same,Parasite Equivalents/50ng of DNA of skeletal muscle,T. cruzi Brazil strain; IFNg KO mice,0.000877 Parasite Equivalents/50ng of DNA and 0.0011 Parasite Equivalents/50ng of DNA and 0.000197 Parasite Equivalents/50ng of DNA and 0.013 Parasite Equivalents/50ng of DNA and 0.002 Parasite Equivalents/50ng of DNA and 0.00327 Parasite Equivalents/50ng of DNA and 0.004 Parasite Equivalents/50ng of DNA and 0.00265 Parasite Equivalents/50ng of DNA and 0.000622 Parasite Equivalents/50ng of DNA
same,Parasite Equivalents/50ng of DNA of skeletal muscle,"T. cruzi Brazil strain; mice, 10 mg/kg",0.00752 Parasite Equivalents/50ng of DNA and 0.05 Parasite Equivalents/50ng of DNA and 0.00 Parasite Equivalents/50ng of DNA
same,Parasite Equivalents/50ng of DNA of skeletal muscle,"T. cruzi Brazil strain; mice, 25 mg/kg",0.00369 Parasite Equivalents/50ng of DNA and 0.00 Parasite Equivalents/50ng of DNA and 0.00185 Parasite Equivalents/50ng of DNA and 0.0154 Parasite Equivalents/50ng of DNA
same,inhibition of representative cytochrome P450 enzymes,[4],did not demonstrate significant inhibition
same,IC50,[5]; [9],0.5 nM
same,IC50,[5]; [10],6 nM
same,oral absorption (in words),"Pharmacokinetics in mice; mice, dose proportionality evaluation",solubility-limited absorption
same,dose proportionality of exposure,"Pharmacokinetics in mice; mice, oral",lack of dose
Cc1c(C(=O)N[C@H](C(=O)OCC2CCOCC2)C(C)C)ccc2c1B(O)OC2 [AN15368],IC50,[1],11.8 nM
same,"genotoxicity, Ames",Ames study,non-genotoxic
same,"genotoxicity, in vitro micronucleus",[2],non-genotoxic
same,"affinity for mammalian enzymes, receptors and ion channels",[3],little to no affinity
same,minimal efficacious dose in mice,"T. cruzi Brazil strain; 40 day treatment cure assay, Fig 3e",2.5 mg/kg
same,Parasite equivalent/ 50 ng of DNA of skeletal muscle,T. cruzi Brazil strain; [7],0.0182 Parasite equivalent/ 50 ng of DNA and 0.32 Parasite equivalent/ 50 ng of DNA and 0.00408 Parasite equivalent/ 50 ng of DNA and 0.015 Parasite equivalent/ 50 ng of DNA and 0.12 Parasite equivalent/ 50 ng of DNA and 0.09 Parasite equivalent/ 50 ng of DNA and 0.06 Parasite equivalent/ 50 ng of DNA
same,Parasite equivalent/ 50 ng of DNA of skeletal muscle,T. cruzi Brazil strain; [8],0.60 Parasite equivalent/ 50 ng of DNA and 0.12 Parasite equivalent/ 50 ng of DNA and 6.19 Parasite equivalent/ 50 ng of DNA and 0.32 Parasite equivalent/ 50 ng of DNA and 0.45 Parasite equivalent/ 50 ng of DNA
same,Parasite equivalent/ 50 ng of DNA of skeletal muscle,"T. cruzi Brazil strain; Fig. 3e, mice treated for 40 days with 2.5 mg/kg, 2.5 mg/kg",0.7074 Parasite equivalent/ 50 ng of DNA and 0.07409 Parasite equivalent/ 50 ng of DNA and 0.06686 Parasite equivalent/ 50 ng of DNA and 0.2452 Parasite equivalent/ 50 ng of DNA and 0.02329 Parasite equivalent/ 50 ng of DNA and 2.237 Parasite equivalent/ 50 ng of DNA and 0.1466 Parasite equivalent/ 50 ng of DNA
same,outcome of cure assays,"T. cruzi Brazil strain; mice, Fig. 3",cures T. cruzi infection in mice
same,inhibition of representative cytochrome P450 enzymes,[4],did not demonstrate significant inhibition
same,% of maximum,"[5]; Fig 5.d, WT, [uM] 0.60",-2%
same,activity at 0.6 µM,"[5]; Trypanosoma cruzi, Vero, 72 h, read-out: % of maximum, Fig 5.d, WT, [uM] 0.60",-2%
same,IC50,"[5]; Trypanosoma cruzi, Vero, 120 h, read-out: WT IC50, WT intracellular amastigotes, control of CPSF3 mutant comparison, Fig. 5d",12 nM
same,IC50,[5]; [9],2.4 nM
same,IC50,"[5]; Trypanosoma cruzi, Vero, read-out: WT IC50, WT intracellular amastigotes, control of TcCBP KO comparison",2.4 nM
same,IC50,[5]; [10],5 nM
same,parasite DNA in blood (in words),"[6]; 30 mg/kg/day oral 60 days, all time points after end of treatment",negative
same,efficacy / cure,"[6]; naturally infected NHPs, 30 mg/kg/day 60 days",100%
same,exposure AUC0-last,"Pharmacokinetics in mice; mice, 10mg/kg dose",17.5 µg·h/kg
same,minimal curative exposure in mice,"Pharmacokinetics in mice; mouse, in vivo, 2.5 mg/kg",4.375 µg·h/kg
